Laboratory results published in BigSolDB 2.1.

## CN(CCOc1ccc(CC2SC(=O)NC2=O)cc1)c1ccccn1 (configuration not stated)
In acetone, 283.15 K
  solubility (mole fraction): 0.00177
In acetone, 293.15 K
  solubility (mole fraction): 0.00278
In acetone, 303.15 K
  solubility (mole fraction): 0.00455
In acetone, 313.15 K
  solubility (mole fraction): 0.00691
In acetone, 323.15 K
  solubility (mole fraction): 0.00992
In acetonitrile, 283.15 K
  solubility (mole fraction): 0.000267
In acetonitrile, 293.15 K
  solubility (mole fraction): 0.000453
In acetonitrile, 303.15 K
  solubility (mole fraction): 0.000744
In acetonitrile, 313.15 K
  solubility (mole fraction): 0.00126
In acetonitrile, 333.15 K
  solubility (mole fraction): 0.00352
In ethanol, 283.15 K
  solubility (mole fraction): 0.000245
In ethanol, 293.15 K
  solubility (mole fraction): 0.000341
In ethanol, 303.15 K
  solubility (mole fraction): 0.000458
In ethanol, 313.15 K
  solubility (mole fraction): 0.00067
In ethanol, 323.15 K
  solubility (mole fraction): 0.00124
In ethanol, 333.15 K
  solubility (mole fraction): 0.00244
In ethyl acetate, 283.15 K
  solubility (mole fraction): 0.00123
In ethyl acetate, 293.15 K
  solubility (mole fraction): 0.00205
In ethyl acetate, 303.15 K
  solubility (mole fraction): 0.003
In ethyl acetate, 313.15 K
  solubility (mole fraction): 0.00441
In ethyl acetate, 323.15 K
  solubility (mole fraction): 0.00649
In ethyl acetate, 333.15 K
  solubility (mole fraction): 0.0118
In isopropanol, 283.15 K
  solubility (mole fraction): 0.00013
In isopropanol, 293.15 K
  solubility (mole fraction): 0.000173
In isopropanol, 303.15 K
  solubility (mole fraction): 0.000282
In isopropanol, 313.15 K
  solubility (mole fraction): 0.000529
In isopropanol, 323.15 K
  solubility (mole fraction): 0.000992
In isopropanol, 333.15 K
  solubility (mole fraction): 0.00218
In methanol, 283.15 K
  solubility (mole fraction): 0.000139
In methanol, 303.15 K
  solubility (mole fraction): 0.000444
In methanol, 313.15 K
  solubility (mole fraction): 0.000745
In methanol, 323.15 K
  solubility (mole fraction): 0.00132
In methanol, 333.15 K
  solubility (mole fraction): 0.00235
In methyl acetate, 283.15 K
  solubility (mole fraction): 0.00123
In methyl acetate, 293.15 K
  solubility (mole fraction): 0.00205
In methyl acetate, 303.15 K
  solubility (mole fraction): 0.00335
In methyl acetate, 313.15 K
  solubility (mole fraction): 0.0052
In methyl acetate, 323.15 K
  solubility (mole fraction): 0.00795
In methyl acetate, 333.15 K
  solubility (mole fraction): 0.0126
In n-butanol, 283.15 K
  solubility (mole fraction): 0.000341
In n-butanol, 293.15 K
  solubility (mole fraction): 0.000371
In n-butanol, 303.15 K
  solubility (mole fraction): 0.00042
In n-butanol, 313.15 K
  solubility (mole fraction): 0.00063
In n-butanol, 323.15 K
  solubility (mole fraction): 0.00147
In n-butanol, 333.15 K
  solubility (mole fraction): 0.00293
In n-butyl acetate, 283.15 K
  solubility (mole fraction): 0.000926
In n-butyl acetate, 293.15 K
  solubility (mole fraction): 0.00117
In n-butyl acetate, 303.15 K
  solubility (mole fraction): 0.00235
In n-butyl acetate, 313.15 K
  solubility (mole fraction): 0.00355
In n-butyl acetate, 323.15 K
  solubility (mole fraction): 0.00505
In n-butyl acetate, 333.15 K
  solubility (mole fraction): 0.0092
In n-propanol, 283.15 K
  solubility (mole fraction): 0.000276
In n-propanol, 293.15 K
  solubility (mole fraction): 0.00028
In n-propanol, 303.15 K
  solubility (mole fraction): 0.000323
In n-propanol, 313.15 K
  solubility (mole fraction): 0.000741
In n-propanol, 323.15 K
  solubility (mole fraction): 0.00133
In n-propanol, 333.15 K
  solubility (mole fraction): 0.0029
